The values below come from patent US20100240656A1, “COMPOUNDS AS HSP90 INHIBITORS” (ORYZON GENOMICS, S.A., priority 2007, published 2010).

Molecules are shown by their SMILES. pEC50, pIC50, pKd: −log10 of the molar value. Where two headings read alike, the source gives them in different places.

One experiment concerns HCT-116. Kind of experiment: Cell growth inhibition by AlamarBlue method, HCT-116. In kind it is cell-based. The conditions noted are these: Homo sapiens; HCT-116, 72 hours; read-out: Cell growth inhibition values (EC50) obtained with AlamarBlue method. The method, then: (§1) The human colon cancer cell line HCT-116 and the human breast cell lines MCF-7 and SKBr3 were from the American Type Culture Collection (ATCC; CCL-247, HTB-22 and HTB-30, respectively).
(§2) The HCT-116 and SKBr3 cell lines were maintained in DMEM GlutaMAX (Invitrogen) supplemented with 10% fetal calf serum and the MCF-7 cell line was maintained in RPMI1640 GlutaMAX (Invitrogen) containing 1 mM sodium pyruvate and 10% fetal calf serum. Cells were grown in a humidified incubator at 37° C. in 5% CO2
(§3) Cells were plated in 96-well plates (Costar, 3596) at a density of 6000 cells/well in 50 μL medium 24 h before addition of the compounds. Compounds were then added in 8 concentrations, each in triplicate (dilution series of 1 to 3). To do so, a compound-dilution plate at 200× the screening concentrations was prepared in DMSO 100% (Sigma, 154938). Then, 1.7 μL of the 200× diluted compounds were transferred to a new plate and 170 μL of media were added and mixed with the pipette (plate at 2×). Columns 11 and 12 of this plate (controls) were filled with 1% DMSO in cell media (i.e. 1.7 μL DMSO and 170 μL cell media). Finally, 50 μL of this intermediate plate at 2× were transferred to the plate containing the seeded cells and slowly shaken manually. Cells were grown as described above. AlamarBlue viability assay (Biosource, Invitrogen, DAL1100) was performed 72 hours later following manufacturer's protocol. In brief, AlamarBlue diluted in media was added to cells to have a 5% solution (a 2× solution was prepared in media and 100 μL of this solution were transferred to each well, i.e. final volume of 200 μL). Cells were incubated at 37° C., 3 hours and at room temperature for an additional 30 min. Cells with no compound and, cells with no compound and lysed with triton X-100 (30 μL/well added 10 min before treatment with AlamarBlue) were used as controls (6 replicates of each). Fluorescence was monitored at 530 nm excitation and 590 nm emission wavelengths. Results were quantified using ELx800 Universal Microplate Reader (Bio-Tek Instruments, Inc.). EC50 were calculated as the dose of compound required to inhibit cell growth by 50%.
(In general: The colour change of resazurin is a common sign of viable cells or microbes.)

For the next experiment, the system named is SKBr3. Nature of the experiment: Cell growth inhibition by AlamarBlue method, SKBr3. In kind it is cell-based. To be noted: Homo sapiens, SK-BR-3; SKBr3, 72 hours; read-out: Cell growth inhibition values (EC50) obtained with AlamarBlue method. The method, then:
as §1, §2, §3

Experiment [1] addresses T1, Hsp90α (Homo sapiens, UniProt P07900).
T1 construct: purchased Stressgen Bioreagents SPP-776
Kind of experiment: Human Hsp90α fluorescence polarization competition assay with Example 37 tracer. The conditions noted are these: displacement of 50 nM example 37 tracer, 125 nM Hsp90α, 1 h 30 min, 20° C.; read-out: Relative binding affinity values (IC50) obtained from FP measurements. The text has this:
The aim of this study was to determine the binding ability of compounds of the invention to the N-terminal ATP binding site of Hsp90. For that purpose competition assays with fluorescently labeled Hsp90 binders were used (compounds of examples 37 and 41).
Compounds of examples 37 and 41 are structurally based on 8-(6-Iodo-benzo[1,3]dioxol-5-ylsulfanyl)-9-(3-isopropylamino-propyl)-9H-purin-6-ylamine, a known binder of the N-terminal ATP binding site of Hsp90 which has the ability of inhibiting the Hsp90 function (cf. Chiosis G. et al. “Identification of Potent Water Soluble Purine-Scaffold Inhibitors of the Heat Shock Protein 90”, J. Med. Chem., 2006, vol. 49, no. 1, p. 381). Compounds 37 and 41 keep the essential structural features of the known binder (which means that said compounds are able to bind to the ATP binding site) and incorporate a fluorescent probe which allows the detection of the binding by fluorescence polarization.
When the binders of examples 37 and 41 are used in the competition assay, in a first step said binders are allowed to interact with the N-terminal ATP binding site of Hsp90. Then the compounds of the invention are added and it is determined if they are able to bind to the N-terminal ATP binding site (which will imply that the binders of examples 37 and 41 have been replaced from the N-terminal ATP binding site). If after performing the assay, the binding between the tested compound of the invention and the Hsp90 is observed, this will be indicative that the compound of the invention has been bound to the ATP binding site of Hsp90 and, therefore, can inhibit the Hsp90.
(§4) Once compounds of examples 37 and 41 were synthesized as reported above, they were dissolved at 238 μM and 1 mM in DMSO respectively (Sigma-Aldrich, cat. No. 154938). Hsp90α was purchased from Stressgen Bioreagents (cat. No. SPP-776; Victoria, Canada). The assay buffer contained 100 mM Tris·HCl, pH 7.4, 20 mM KCl, 6 mM MgCl2. Before each use 5 μg/mL bovine serum albumin (BSA, Pierce, Rockford (Ill.), cat No. 23209), 0.25 mM TCEP (Sigma, cat No. 64706) and 0.01% NP40 (Nonidet P40 Substitute, Fluka, cat No. 74385) were freshly added (cf. Howes et al., “A fluorescence polarization assay for inhibitors of Hsp90”, Analytical Biochemistry, 2006, vol. 350, p. 202-213; Kim et al., “Development of a fluorescence polarization assay for the molecular chaperone Hsp90”, J. Biomol. Screen., 2004, vol. 9 (5)).
Fluorescence polarization measurements were performed on an Infinite F200 (Tecan, Austria). Measurements were taken in black 96-well microplates (Corning Costar No. 3650) in which both the excitation and the emission occurred from the top of the wells. In the Infinite F200, a xenon arc lamp provides excitation light that passes through a 485 nm (20-nm bandwidth) excitation filter and then a polarizer filter. A beam splitter filter directs the polarized excitation light into the well, and emitted fluorescence transmits back through the same beam-splitter filter, through a polarizer filter, and then through a 535 nm (25-nm bandwidth) emission filter for detection (Kim et al., supra). The read time per well was 20 μs, and the number of reads per well was 25.
Compounds were assayed over a three-fold dilution series in a 96-well plate format to determine IC50 values. The serial dilution was performed in a separate 96-well plate (Thermowell 96 well PCR plate, Non-Treated Polypropylene, Corning Costar No. 6551) at 50 times final assay concentration in DMSO. (Howes et al, supra). 2 μl of compound was transferred to a black 96-well plate (Corning Costar No. 3650) and 98 μL of reaction solution (100 mM Tris·HCl, pH 7.4, 20 mM KCl, 6 mM MgCl2, 5 μg/mL bovine serum albumin (BSA), 0.25 mM TCEP, 0.01% NP40, 50 nM the compound of example 37, 125 nM Hsp90α) was added per well. The plate was allowed to equilibrate for 1 h 30 min on a slow moving shaker at 20° C. in the dark. […]
Background: Fluorescence polarisation rises when a labelled molecule tumbles more slowly, as on binding a larger partner.

For another experiment, the system named is MCF-7. Nature of the experiment: Cell growth inhibition by AlamarBlue method, MCF-7. The conditions noted are these: MCF-7, 72 hours, read-out: Cell growth inhibition values (EC50) obtained with AlamarBlue method. Format: cell-based, human. On the procedure:
as §1, §2, §3

Experiment [2] relates to Hsp90 client proteins (c-Raf-1, Cdk4, Her2) and co-chaperone Hsp70. To be noted: literature (Banerji U. et al.); cited from earlier work.
Experiment [3] has as its target T1, Hsp90α. Nature of the experiment: Fluorescence polarization binding isotherms of tracers with Hsp90α. To be noted: fitted to a 1:1 binding model; read-out: dissociation constant (KD) tracer / Hsp90α. The method, then:
as §4
Fluorescence polarization measurements were performed on an Infinite F200 (Tecan, Austria). […] A beam splitter filter directs the polarized excitation light into the well, and emitted fluorescence transmits back through the same beam-splitter filter, through a polarizer filter, and then through a 535 nm (25-nm bandwidth) emission filter for detection (Kim et al., supra). The read time per well was 20 μs, and the number of reads per well was 25. […]

What is called pEC50 is −log10 of the EC50, conventionally taken in molar units. For orientation: pIC50 means −log10 of the IC50, conventionally taken in molar units. As to `C=Cc1cc2c(cc1Sc1nc(C(N)=O)c(N)n1C)OCO2` [Example 77, 5-amino-1-methyl-2-[(6-vinyl-1,3-benzodioxol-5-yl)thio]-1H-imidazole-4-carboxamide], the negative-log EC50 (pEC50) with HCT-116 and in the experiment on SKBr3 was 4.41 throughout. Moreover, the negative logarithm of the IC50 (pIC50) at Hsp90α [1] is 5.35.

Take `CC(C)NCCCn1c(Sc2cc3c(cc2I)OCO3)nc(C(N)=O)c1N` [Example 33, 5-amino-2-(6-iodo-benzo[1,3]dioxol-5-ylsulfanyl)-1-(3-isopropylamino-propyl)-1H-imidazole-4-carboxamide]: the negative logarithm of the EC50 (pEC50) was 5.52 in the experiment on MCF-7 (Homo sapiens, MCF7) and 5.52 in the experiment with HCT-116. Moreover, the pIC50 at Hsp90α [1] is 6.30.

In the case of `C=CCNC1=C2C[C@@H](C)C[C@H](OC)[C@H](O)[C@@H](C)/C=C(\C)[C@H](OC(N)=O)[C@@H](OC)/C=C\C=C(/C)C(=O)NC(=CC1=O)C2=O` [Example 17AAG, 17-Allylamino, 17-Demethoxygeldanamycin], the “effect of Hsp90 inhibitor on client proteins and Hsp70 as described in the literature” value in experiment [2] is “promotes degradation of its client proteins and overexpression of the co-chaperone Hsp70”.

`Cc1cc(C)n2c1C=C1C=CC(CCC(=O)NCCNC(=O)CCCCCn3c(Sc4cc5c(cc4I)OCO5)nc4c(N)ncnc43)=[N+]1[B-]2(F)F` [Example 37, 6-[6-amino-8-(6-iodo-benzol[1,3]dioxol-5-ylsulfanyl)-purin-9-yl]-hexanoic acid 4,4-difluoro-5,7-dimethyl-4-bora-3a,4a-diaza-s-indacene-3-propionylethylenediamide]: the pKd at Hsp90α [3] is 7.22.

As for `CCCCn1c(Sc2nc3cccc(Cl)c3s2)nc(C(N)=O)c1N` [Example 48, 5-amino-1-butyl-2-(7-chloro-benzothiazol-2-ylsulfanyl)-1H-imidazole-4-carboxamide], the pEC50 in the experiment with MCF-7 (Homo sapiens, MCF7) is 4.37; in the experiment on HCT-116, 4.48. In addition, the pIC50 on Hsp90α [1] was 5.56.

In the case of `Cn1c(Sc2cc3c(cc2Br)OCC3)nc(C(N)=O)c1N` [Example 97, 5-amino-2-[(6-bromo-2,3-dihydro-1-benzofuran-5-yl)thio]-1-methyl-1H-imidazole-4-carboxamide], the pEC50 was 4.15 in the experiment on HCT-116 and 4.39 in the experiment with SKBr3. In addition, the pIC50 on Hsp90α [1] was 5.30.

Regarding `CCN(CC)CCCn1c(Sc2cc3c(cc2SC)OCO3)nc(C(N)=O)c1N` [Example 98, 5-amino-2-{[6-(methylthio)-1,3-benzodioxol-5-yl]thio}-1-[3-(diethylamino)propyl]-1H-imidazole-4-carboxamide], the figures for the pEC50 with HCT-116 and with SKBr3 were 5.22 and 5.72, respectively. The pIC50 at Hsp90α [1] was 5.70.

For `Nc1ncnc2c1nc(Sc1cc3c(cc1I)OCO3)n2CCCCNC(=O)CCCCCNc1ccc([N+](=O)[O-])c2nonc12` [Example 41, 6-(7-nitro-benzo[1,2,5]oxadiazol-4-ylamino)-hexanoic acid {-4-[6-amino-8-(6-iodo-benzol[1,3]dioxol-5-ylsulfanyl)-purin-9-yl]-butyl}-amide], the pKd at Hsp90α [3] is 7.68.

As for `CC(C)N(CCCn1c(Cc2cc3c(cc2I)OCO3)nc(C(N)=O)c1N)C(=O)OC(C)(C)C` [Example 44, {3-[5-amino-4-carbamoyl-2-(6-iodo-benzol[1,3]dioxol-5-ylmethyl)-imidazol-1-yl]-propyl}-isopropyl-carbamic acid tert-butyl ester], the pEC50 with MCF-7 was 4.73. In addition, the pIC50 at Hsp90α [1] was 5.49.
